Measurements from paper PMC3973950, “Synthesis of 5-arylidine amino-1,3,4-thiadiazol-2-[(N-substituted benzyol)]sulphonamides endowed with potent antioxidants and anticancer activity induces growth inhibition in HEK293, BT474 and NCI-H226 cells” (Medicinal Chemistry Research, 2013).

Tested on: root meristem cells of Allium cepa
Experiment: In vitro antimitotic activity and cytogenetic analysis, Allium cepa meristem root model
Assay type: cell-based
Details: compounds 1 mg/mL, PC (EMS) 2 × 10^−2 M
Description: Small bulbs (1.5–2.0 cm in diameter) of the common onion, A. cepa (2n = 16), were purchased from vendor at a local market. Prior to initiating the test, the outer scales of the bulbs and the dry bottom plate were removed without destroying the root primordia. The roots of A. cepa were grown in distilled water in Erlenmeyer flasks (200 mL capacity) under laboratory conditions (dark 24 °C). For each synthesized compound sample, after reaching a length of 3 cm (±0.5 cm), a series of six bulbs were placed in distilled water (pH 7.3) for 48 h and then onion roots were treated with the synthesized compound at 1 mg/mL concentrations of each tested compound. The test tubes were kept in an incubator at 22 ± 1 °C, and the test samples were changed daily at the same time. Several of the newly formed root tips were then cut from each bulb and examined for any visible morphological abnormalities. The bulbs with satisfactory root lengths (2–2.5 cm) were used in the study, while those with exceptionally long or short roots were discarded (on average 2–3 bulbs). Therefore, individual sets of five bulbs were used for each extract sample.
Distilled water (pH 7.3) was used as a negative control, and EMS (2 × 10^−2 M) used as a positive control mutagen (Fiskesjo, [1993], [1997]). After 24 h of exposure, several root tips were removed from the bulbs, fixed in 3:1 (v/v) ethanol (90 %)/glacial acetic acid (45 %) and stored overnight at 4 °C. The next day, they were placed in 70 % (v/v) aqueous alcohol and refrigerated until used. Allium roots were softened by digesting with HCl and rinsed the roots in water. After removing the water from the third rinse, the roots were covered with the orcein acetate stain. The roots were incubated in the stain for 12 min. During this time, the very tip of the root begins to turn red as the DNA stains the numerous small actively dividing cells at the tip. A root was transferred to the centre of a clean microscope slide, and a drop of water was added. Using a razor blade most of the unstained part of the root was cut off and discarded. The root tip was covered with a cover slip and then carefully pushed down on the cover slide with the wooden end of a dissecting probe. […] The root tip should spread out to a diameter about 0.5–1 cm. Five slides were prepared per bulb.
The following parameters were used for the determination of cytotoxicity and genotoxicity: • (i) the mitotic index (MI) was calculated as the ratio between the number of mitotic cells and the total number of cells scored and expressed as percentage using following formula as per standard procedures. Mitoticindex=Numberofdividingcells/Totalnumberofcells×100 • (ii) Chromatin aberrations (stickiness, breaks and polar deviation) were used as end points for the determination of cytogenetic effects, and micronuclei (MNC) were scored in interphase cells per 1,000 cells (‰ MNC) (Freshney, [2000]). • (iii) The most frequent abnormalities are shown in microphotographs. After 72 h of exposure to the test samples, the root lengths were measured and used as an index of general toxicity. The results for mitotic index and root length are expressed as percentage of the negative and positive controls. Visible morphological modifications, such as changes in root consistency and colour as well as the presence of swelling (c-tumours), hooks or twists in the roots, were also observed.

SMILES: CCOS(C)(=O)=O [PC, Ethyl methanesulphonate, reference compound]
- Aberrant cells (%) ± SEM: 43.20 ± 7.10%
- MNC (‰) ± SEM (micronuclei per 1,000 cells): 0.59 ± 0.09 ‰
- Polar deviations (%) ± SEM: 12.36 ± 3.36%
- Stickiness (%) ± SEM: 36.31 ± 9.84%
- MI (%) ± SEM (mitotic index) (lower MI = higher activity, negative control 6.22): 1.86 ± 0.23%
